# Source: patent US11180461B2, “Triazoles as Kv3 inhibitors” (AUTIFONY THERAPEUTICS LIMITED, priority 2012, dated 2021)
# What was measured:
# [1] = target: T1, human Kv3.2 channels (hKv3.2) (Homo sapiens, UniProt Q96PR1); assay: hKv3.2 recombinant cell assay, IonWorks Quattro planar array electrophysiology; assay type: cell-based; conditions: activity quantified by EC50
# T1 construct: expressed in transfected cells
# T1 sequence (Q96PR1 1-638): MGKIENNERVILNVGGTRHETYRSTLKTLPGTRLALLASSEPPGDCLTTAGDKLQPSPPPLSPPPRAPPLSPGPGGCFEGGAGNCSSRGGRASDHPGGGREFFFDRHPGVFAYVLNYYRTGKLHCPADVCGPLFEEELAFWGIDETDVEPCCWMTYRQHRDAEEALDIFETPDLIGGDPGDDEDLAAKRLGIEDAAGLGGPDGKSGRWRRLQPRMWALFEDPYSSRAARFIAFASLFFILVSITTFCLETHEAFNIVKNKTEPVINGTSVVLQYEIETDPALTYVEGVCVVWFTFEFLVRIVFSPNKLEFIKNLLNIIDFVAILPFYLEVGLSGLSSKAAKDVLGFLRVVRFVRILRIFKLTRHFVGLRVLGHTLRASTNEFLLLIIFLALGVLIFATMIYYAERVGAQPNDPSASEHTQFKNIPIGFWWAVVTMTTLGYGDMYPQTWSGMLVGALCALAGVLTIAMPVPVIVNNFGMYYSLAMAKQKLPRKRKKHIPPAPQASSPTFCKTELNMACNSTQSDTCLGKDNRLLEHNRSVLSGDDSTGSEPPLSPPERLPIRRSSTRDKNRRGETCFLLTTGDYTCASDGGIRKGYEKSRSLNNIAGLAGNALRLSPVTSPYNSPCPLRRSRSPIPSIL
# Description: The ability of the compounds of the invention to modulate the voltage-gated potassium channel subtypes Kv3.2/3.1 may be determined using the following assay. The assay may also be used to determine the ability of compounds of the invention to modulate the voltage-gated potassium channel Kv3.3. Analogous methods may be used to investigate the ability of the compounds of the invention to modulate other channel subtypes.
# To assess compound effects on human Kv3.2 channels (hKv3.2), a stable cell line expressing human Kv3.2 channels (hKv3.2) was created by transfecting Chinese Hamster Ovary (CHO)—K1 cells with a pCIH5-hKv3.2 vector. Cells were cultured in DMEM/F12 medium supplemented by 10% Foetal Bovine Serum, 1× non-essential amino acids (Invitrogen) and 500 ug/ml of Hygromycin-B (Invitrogen). Cells were grown and maintained at 37° C. in a humidified environment containing 5% CO2 in air. […]
# Experiments were conducted at room temperature using IonWorks Quattro™ planar array electrophysiology technology (Molecular Devices Corp.) with PatchPlate™ PPC. […] Planar electrode hole resistances (Rp) were determined by applying a 10 mV voltage step across each well. […] Test pulses protocol may be performed in the absence (pre-read) and presence (post-read) of the test compound. Pre- and post-reads may be separated by the compound addition followed by a 3 minute incubation. […]
# [2] = Determination of in vivo pharmacokinetic parameters (blood and brain) in rats, with and without Elacridar; conditions: rat, oral 1 mg/kg
# Description: Adult male rats (Charles River, Italy) were dosed with test compound orally at 1 mg/kg (5 ml/kg, in 5% v/v DMSO, 0.5% w/v HPMC in water) and intravenously at 0.5 mg/kg (2 ml/kg, in 5% v/v DMSO 40% w/v PEG400 in saline). After oral administration, blood samples were collected under deep Isofluorane anesthesia from the portal vein and heart of each rat (1 rat per time point). After intravenous administration, serial blood samples were collected from the lateral tail vein of each rat. A further group of rats (n=1 per test compound) received a single intravenous administration of the PgP transport inhibitor, Elacridar (3 mg/kg) shortly before the oral administration of the test compound at 1 mg/kg, as above. Blood and brain samples were collected at a single timepoint of 0.5 h after dose administration for these animals. In all cases, blood samples were collected into potassium EDTA tubes.
# Blood and brain samples were assayed for test compound concentration using a method based on protein precipitation with acetonitrile followed by HPLC/MS-MS analysis with an optimized analytical method.
# The concentrations of test compound in blood (expressed as ng/ml) and brain (expressed as ng/g) at the different time points following either oral or intravenous dosing were analysed using a non-compartmental pharmacokinetic model using WinNonLin Professional version 4.1. The following parameters were drived:
# Intravenous dosing: Maximum concentration over time (Cmax), integrated concentration over time (AUC), clearance (Clb), volume of distribution (Vss) and half-life (t1/2).
# Oral dosing: Cmax, time of maximum concentration (Tmax), AUC, bioavailability (F %), fraction absorbed (Fa %), blood to brain ratio (AUC BB), and Fold-change in AUC BB in the presence of Elacridar.
smiles,measurement,setting,value
"Cc1n[nH]c(=O)n1-c1ccc(Oc2cccc3c2C2(CC2)CO3)nc1 [Example 15, 5-methyl-4-[6-(spiro[1-benzofuran-3,1′-cyclopropan]-4-yloxy)pyridin-3-yl]-2,4-dihydro-3H-1,2,4-triazol-3-one]",selectivity for modulation of Kv3.2 channels over Kv3.1 channels,[1],demonstrates selectivity for Kv3.2 channels
same,AUC BB relative to Reference Example 87 and Reference Example 88 of WO2011069951A1,[2]; AUC BB from blood and brain,at least two fold
same,change in AUC BB in the presence of Elacridar,"[2]; Elacridar 3 mg/kg i.v., blood and brain at 0.5 h, p-glycoprotein interaction",limited change
